Here are results for two compounds from patent US12504371B2, “System and method of dynamic micro-optical coherence tomography for mapping cellular functions” (The General Hospital Corporation, priority 2020, dated 2025).

One assay concerns MC38 murine tumor. Put plainly: d-μOCT and CC3 IHC of freshly excised MC38 tumor treated with a drug-containing IMD. Conditions: IMD containing doxorubicin, 6 hrs; mid frequency Blue 0.47-0.63 Hz. It is filed as in vivo. On the procedure:
Dynamic-μOCT has been applied to human biopsies and chemotherapy-treated tumors grown in mouse models. In human biopsies, it is possible to use d-μOCT to distinguish microscopic features (e.g. cell nuclei, organelles, and cell membranes), cellular structures (e.g. squamous, glandular, inflammatory cells), and different cell types that were not evident in corresponding regular μOCT images. Ex vivo experiments were also performed using tumors grown with human cell lines. Custom microdevices containing small amounts of chemotherapeutic drugs were inserted into the tumors. For example, effects of intra-tumoral apoptosis were distinguished with d-μOCT and confirmed with histology images stained with cleaved caspase-3 (CC3), an apoptosis marker.
Panel (B) is from the same location in the sample. d-μOCT color codes: Red 0-0.08 Hz, Blue 0.47-0.63 Hz, Green 3.98-20 Hz. Bars, 200 μm.
d-μOCT enables high contrast, subcellular, cross-sectional motility imaging of intact human and animal tissues ex vivo. d-μOCT data (FIGS. 7, 9-16) were obtained using a μOCT benchtop system microscope that employs a supercontinuum-illuminated, common path, spectral domain OCT (SDOCT) system to obtain cross-sectional images with a resolution of 2 μm×2 μm (lateral)×1 μm (axial). The depth of focus was 300 μm, extended by annular apodization of the sample arm's objective lens. […]

In assay [1] the test system is freshly excised murine liver. Nature of the assay: d-μOCT imaging of freshly excised murine liver in blebbistatin. It is filed as cell-based. Particulars: 30 μM blebbistatin, t=40 minutes vs t=0; Red 0-0.08 Hz, Green 3.98-20 Hz. An excerpt:
d-μOCT enables high contrast, subcellular, cross-sectional motility imaging of intact human and animal tissues ex vivo. d-μOCT data (FIGS. 7, 9-16) were obtained using a μOCT benchtop system microscope that employs a supercontinuum-illuminated, common path, spectral domain OCT (SDOCT) system to obtain cross-sectional images with a resolution of 2 μm×2 μm (lateral)×1 μm (axial). The depth of focus was 300 μm, extended by annular apodization of the sample arm's objective lens. Images were acquired at an A-line (depth resolved reflectivity profile) rate of 20 KHz and spanned 1 mm laterally. All tissues samples were imaged fresh in culture media (10% FBS/DMEM+1% pen-strep) at 25° C. Two scan modes were used: 1) N=1000 images (512 A-lines/image) acquired sequentially over a period of 25 seconds (FIG. 8, scan mode 1) or 2) N=1000 A-lines acquired sequentially at each lateral scan point (FIG. 8, scan mode 2). Following local elastic unwarping to remove bulk motion caused by evaporation or vibration, a power spectrum estimate (periodogram) was computed on a pixel-per-pixel basis using Welch's method and frequency normalization. For scan mode 1, to represent the data in a single image, low (−0-0.1 Hz), middle (−0.5-0.7 Hz) and high (−4-20 Hz) frequency component images were merged into the RGB channels of a 24-bit color image. […]

Consider `COc1cccc2c1C(=O)c1c(O)c3c(c(O)c1C2=O)C[C@@](O)(C(=O)CO)C[C@@H]3O[C@H]1C[C@H](N)[C@H](O)[C@H](C)O1` [doxorubicin], for which the “d-μOCT frequency content compared with cleaved caspase-3 (CC3) IHC” value with MC38 murine tumor is “diffuse region of mid-frequency content (arrow) that mirrors cleaved caspase-3 (CC3) IHC”.
For the compound `Cc1ccc2c(c1)C(=O)C1(O)CCN(c3ccccc3)C1=N2` (centres unmarked) [blebbistatin], the “change in d-μOCT intracellular motion frequency content” value in assay [1] was “dramatic reduction in high frequency (green) and increase in low frequency (red) intracellular motion”.
